Six substances from patent publication US6060310A, “Transcription factor decoy and tumor growth inhibitor” (priority 1997, dated 2000) can be followed below.

The subject of data set [1] is CRE-directed transcription in MCF7 cells. Nature of the data set: Transient transcription assay, somatostatin Δ-71 SS-CAT reporter. Type of data set: cell-based, human. Particulars: for effect on CAT activity / CRE-directed transcription: intact cells, transient transcription assay. As to the method:
The CRE oligonucleotide successfully interfered with the CRE-directed transcription in intact cells. To analyze the effect of CRE oligonucleotide in CRE-directed transcription, a transient transcription assay was performed using a reporter plasmid, somatostatin Δ-71 (CPE-containing promoter)-CAT (chloramphenicol acetyltransferase) fusion gene (Montminy et al., Proc. Natl. Acad. Sci. 83, 6682 [1986]). MCF7 cells were transfected with 5 μg of somatostatin-chloramphenicol acetyltransferase fusion gene (Δ-71 SS-CAT plasmid) and 4 μg of CRE (i.e., the 24-mer described in Example 1) or control oligonucleotide by the use of transfection reagent N-[1-(2,3-Dioleoyloxy)propyl]-N,N,N-trimethylammonium methysulfate (DOTAP). After 5 hours, fresh medium was added, and the cells were harvested at 48 to 72 hours, then assayed for CAT activity. Some samples were also treated with forskolin (10 μM), an compound with adenyl cyclase activating properties (i.e., a compound that increases intracellular cAMP concentrations), for the final 24 hours. Cell lysates were prepared as described by Gorman (Gorman, High efficiency gene transfer into mammalian cells, DNA Cloning, Vol II, pp 143-165, IRL press, Oxford, England [1985]). Lysates (75 μg of protein) were incubated with 0.4 μCi of [^14 C]chloramphenicol, 0.53 mM acetyl-CoA, and 250 mM Tris-HCl, pH 7.8 for 90 minutes at 37° C. Under these conditions, CAT activity was linear with time. Reaction products were analyzed by thin-layer chromatography (Gorman, supra).

Data set [2] has as its system cancer cells: MCF7, LNCaP, A549, OVCAR 8, LS174T, KB, MCF7-TH, HCT-15. Put plainly: Cancer cell growth in vitro (cell counts). It is filed as cell-based, human. As to the method: (§1) Cells (0.25-1×10^5 /well) were plated in a 6-well plate containing the growth medium at 37° C. The 24-mer-CRE palindrome oligonucleotide (i.e., as described in Example 1) or two-base mismatched control oligonucleotide (i.e., as described in Example 1) was added, one day after seeding, to duplicate wells at varying concentrations. To increase the delivery of oligonucleotides into the cell, transfection reagent DOTAP was added along with the oligonucleotides. Saline treated (untreated), DOTAP treated (0 concentration), CRE, or CRE control oligonucleotide treated cells were harvested after 4 days of treatment, and cell numbers were counted in duplicate by a Coulter Counter. […] In this figure, lines with closed circles represent cells treated with the 24-mer-CRE palindrome oligonucleotide, while lines with open boxes represent cells treated with the control, mismatch oligonucleotide.

In data set [3] the test system is CRE-protein complex (CRE DNA-binding proteins such as 43 kDa CREB). Nature of the data set: Mobility shift assay of CRE DNA-protein complex formation in nuclear extracts of treated cells. Type of data set: cell-based, human. Particulars: cells treated 150 nM for 2 days; MCF7, MCF10A and LNCaP; versus saline treated cells. As to the method: Cells were treated with saline (i.e., control cells), the CRE 24-mer (150 nM for 2 days), or a control oligonucleotide and nuclear extracts were prepared using the method of Dignam (Dignam et al., Nucleic Acid Res. 11, 1475 [1983]). The control oligonucleotide was 5'-[…]-3' (SEQ ID NO: 8), which is a copy of the CRE 24-mer with two mismatched bases included in each consensus sequence motif (i.e., it will not bind as well to transcription factors as will the consensus sequence oligonucleotide). Nuclear extracts were obtained from the cells and were analyzed by a mobility shift assay to compare the amount of CRE-protein bound complex between treated, untreated, and control samples. The DNA binding assay was performed by a method modified from that of Fried and Crothers (Fried and Crothers, Nucleic Acid Res. 9, 6506 [1981]). Briefly, nuclear extracts (10 μg protein) were pre-incubated with poly(dI-dC).cndot. poly (dI-dC) (1 μg), DTT (0.3 mM), and binding buffer (12 mM Tris pH 7.9, 2 mM MgCI2, 60 mM KCl, 0.12 mM EDTA, and 12% glycerol) with or without antiserum (2-4 μl) for 30 min at 4° C. ^32 P-labeled oligonucleotide (double-stranded CRE triplet, 5'-[…]-3'; SEQ ID NO:12) was then added and the reaction mixtures were incubated for 10 min at 37° C. The reaction mixtures were then separated on a 4% polyacrylamide gel at 200 V for 1.5 hours. The gel was dried and autoradiographed. […]

Data set [4] deals with normal cells MCF-10A and L-132. Nature of the data set: Normal cell growth in vitro (cell counts). Type of data set: cell-based, human. Particulars: MCF-10A and L-132, 4 days of treatment. As for the experimental part:
as §1

A further data set concerns OVCAR8 cells. Nature of the data set: Cell and nuclear morphology (Giemsa, Hoechst 33258), apoptosis. It is filed as cell-based, human. Particulars: OVCAR 8. The source says:
After staining, the whole cells were visualized under an inverted microscope at ×240. […] The nuclear morphology of cells was visualized by a fluorescence microscope (Olympus BH2) at ×2600.

Data set [5] has as its system protein kinase A (PKA) in cultured ovarian cancer cells. Put plainly: PKA activity of cell extracts by column chromatography. It is filed as cell-based. Particulars: treated versus untreated ovarian cancer cells. As for the experimental part: (§2) Cultured ovarian cancer cells were treated with and without CRE decoy oligonucleotide using the methods of Example 1 below. Extracts were analyzed by column chromatography for PKA activity.

The test system of data set [6] is HCT-15 human MDR colon carcinoma. Put plainly: Tumor growth in vivo, HCT-15 xenograft. Set-up: species or system athymic mice. Particulars: 5x/week, 4 weeks. As for the experimental part:
HCT-15 human MDR colon carcinoma tumor cells (2×10^6 cells) were inoculated subcutaneously into the left flank of athymic mice. The CRE or control oligonucleotide was injected intraperitoneally into mice at 0.01-0.1 mg/0.1 ml saline/mouse, daily, 5×/week for 4 weeks, when tumor size reached 30-50 mg ~10 days after cell inoculation. Tumor volumes were obtained from daily measurements of the longest and shortest diameters and calculated by the formula, 4/3πr^3 where r=(length+width)/4.

Data set [7] relates to bcl-2 protein in MCF7 cells. Nature of the data set: Bcl-2 protein level by western blot. It is filed as cell-based, human. Particulars: 150 nM, 4 days. As to the method:
(§3) Bcl-2 protein levels were measured by standard western blotting techniques known in the art using Anti-bcl-2 antibody.
On the technique in general: Immunoblotting shows a protein as a band on a membrane.

Data set [8] deals with bcl-2 protein in MCF-10A cells. Put plainly: Bcl-2 protein level by western blot. Type of data set: cell-based, human. Particulars: MCF-10A normal cells. As to the method: as §3
Data set [9] concerns protein kinase A (PKA) in HS68 cells. Nature of the data set: PKA activity of cell extracts by column chromatography. It is filed as cell-based, human. Particulars: treated versus untreated HS68 cells. As to the method:
as §2

The nature of data set [10]: Cellular uptake of 32P-labeled oligonucleotide. It is filed as in vitro ADME, human. As for the experimental part: To examine the efficacy of cellular incorporation of the CRE oligonucleotides, we incubated ^32 P-labeled samples of CRE-palindromeoligonucleotide and control oligonucleotide with MCF7 and MCF10A cells. Cell-associated radioactivity was quantified. Within 5 hrs, about 10% of the total input oligonucleotide accumulated in the cell and the incorporation continued to rise thereafter reaching 20-25% maximum levels at 24 hr of oligonucleotide incubation. The amounts and the rates of the incorporation of oligonucleotide were similar between MCF7 and MCF10A cells and between the CRE-decoy oligonucleotide and control oligonucleotide.

Data set [11] relates to normal human mammary epithelial, lung epithelial and human newborn foreskin fibroblast (HS68) cell lines. Put plainly: Growth of normal cell lines. Type of data set: cell-based.
Setting [12] is: summary in description, concentration not given.

For “5'-GCTGACGTCGGCCTGACGTCAGC-3' (chemistry not given here) [SEQ ID NO:3, non-palindromic hairpin forming CRE oligonucleotide]”, the “effect on CAT activity / CRE-directed transcription” value in data set [1] is reported as “interfered with CRE-directed transcription”.
For “5'-TGACGGCATGACGGCATGACGGCA-3' (chemistry not given here)”, the growth inhibition in data set [2] (150 nM, separate experiments) was 30%; in [2] (setting [12]), 30%.
By IC50 is commonly meant the concentration needed to halve the response being measured. With “5'-TGACGTCA TGACGTCA TGACGTCA-3' (TGACGTCATGACGTCATGACGTCA; chemistry not given here) [24-mer CRE oligonucleotide, transcription factor decoy]”, the “formation of the CRE-protein complex” value in data set [3] is “marked decrease”. Besides, the “growth of normal cells” value in [4] is recorded as “unaffected”. In addition, in data set [2] (4 days of treatment, with DOTAP, read-out: IC50, growth inhibition of cancer cells), the IC50 was in the range of 100 to 150 nM. Further, the “changes in cell morphology and apoptotic nuclei” value in the data set on OVCAR8 cells is recorded as “appearance of apoptotic nuclei”. The “PKA activity peaks (Type-1 and Type-2)” value in [5] was “no peaks”. Further, the toxicity entry in data set [6] (0.01 or 0.1 mg/mouse i.p. daily) is recorded as “without causing toxicity”. Besides, the “inhibition of tumor growth” value in [6] (0.01 or 0.1 mg/mouse i.p. daily, versus saline treated tumors) is listed as “greater than 85%”. Besides, the bcl-2 level entry in [7] is listed as “markedly reduced”; in data set [8] it was “did not alter”. In data set [9], the PKA activity entry was “did not show any differences”. In addition, the “maximum level of oligonucleotide incorporation” value in data set [10] (24 hr of incubation) is recorded as 20-25%. Further, the “total input oligonucleotide accumulated in the cell” value in [10] (within 5 hrs) was “about 10%”. Also, in data set [11], the “growth of normal cell lines” value is given as “not affected”. Further, in data set [1] (4 μg oligonucleotide with 5 μg Δ-71 SS-CAT, DOTAP, versus Δ-71 CAT alone), the “inhibition of the CRE-directed transcription” value was “greater than 90%”.
In the case of “5'-TGCCGTCATGCCGTCATGCCGTCA-3' (chemistry not given here) [24-mer CRE-hairpin sense oligonucleotide]”, the growth inhibition is 70% in [2] (150 nM, separate experiments) and 70-80% in data set [2] (setting [12]). Further, the “effect on CAT activity / CRE-directed transcription” value in data set [1] is recorded as “strongly inhibited”; in data set [1] (listed as SEQ ID NO:10) it was “strong inhibition”.
Consider “5'-TGTGGTCATGTGGTCATGTGGTCA-3' (DNA, backbone and methylation of C not given here) [reference compound]”, for which the “formation of the CRE-protein complex” value in data set [3] was “same or similar intensity band”. Moreover, the “growth inhibitory effect” value in data set [2] (4 days of treatment, with DOTAP) was “no growth inhibitory effect”. In the data set on OVCAR8 cells, the “changes in cell morphology and apoptotic nuclei” value was “not observed”. Besides, the “tumor growth inhibitory effect” value in [6] (i.p. daily) is “no growth inhibitory effect”. Besides, the bcl-2 level entry in data set [7] and in [8] was “no effect” in each case. Also, the “effect on CAT activity / CRE-directed transcription” value in data set [1] is on record as “no inhibitory effect”.
As for “24-mer CRE-hairpin sense and antisense oligonucleotides in combination: two complementary hairpin-forming oligonucleotides combined, producing a cruciform structure (sense TGCCGTCATGCCGTCATGCCGTCA; antisense TGACGGCATGACGGCATGACGGCA; two hairpin-forming strands combined into cruciform structure, further chemistry not given here)”, the growth inhibition entry in data set [2] (150 nM, separate experiments) is “over 80%”; in data set [2] (setting [12]), “over 80%”.
